Laboratory results: ChEMBL document CHEMBL4765450, “The components and activities analysis of a novel anticoagulant candidate dHG-5” (Eur J Med Chem, 2020)
pIC50: −log10 of the molar value. Active and inactive are the calls of the source. No cut-off for these calls is given here.

Columns and labels:
[1] = target: Coagulation factor XI (Homo sapiens) (UniProt P03951); test: Inhibition of factor 11a (unknown origin) at IC90 using S-2366 as substrate preincubated for 1 min followed by chromogenic substrate addition and measured for 2 mins in presence of AT-III; conditions: time 3.0 min
[2] = target: T1, Coagulation factor IX/VIII (Homo sapiens) (UniProt P00740+P00451); test: Inhibition of human citrated plasma iXase (factor 8a-factor 9a complex) preincubated for 2 mins followed by factor 10 addition and measured after 1 min by FXa chromogenic substrate SXa-11 based assay relative to dHG-5; format: protein-complex assay; conditions: time 3.0 min
[3] = target: Prothrombin (Homo sapiens) (UniProt P00734); test: Inhibition of factor 2a (unknown origin) at IC50 preincubated for 1 min followed by chromogenic substrate addition and measured for 2 mins in presence of AT-III; conditions: time 3.0 min
[4] = target: Coagulation factor XI (Homo sapiens) (UniProt P03951); test: Inhibition of factor 11a (unknown origin) at IC50 using S-2366 as substrate preincubated for 1 min followed by chromogenic substrate addition and measured for 2 mins in presence of AT-III; conditions: time 3.0 min
Plasma [5] = test: Anticoagulation activity in human plasma assessed as drug level causing 20 times doubling of APTT by measuring activity potency of oligosaccharides multiplied by the percentage of oligosaccharides in dHG-5 preincubated for 2 mins followed by APTT reagent and measured after 3 mins by coagulometric method relative to dHG-5; format: functional; conditions: time 5 min
[6] = target: T2, Coagulation factor VII (Homo sapiens) (UniProt P08709); test: Inhibition of factor 7a (unknown origin) at IC50 using pefachrome factor VIIa as substrate preincubated for 1 min followed by chromogenic substrate addition and measured for 2 mins in presence of AT-III; conditions: time 3.0 min
T2 sequence (whole entry): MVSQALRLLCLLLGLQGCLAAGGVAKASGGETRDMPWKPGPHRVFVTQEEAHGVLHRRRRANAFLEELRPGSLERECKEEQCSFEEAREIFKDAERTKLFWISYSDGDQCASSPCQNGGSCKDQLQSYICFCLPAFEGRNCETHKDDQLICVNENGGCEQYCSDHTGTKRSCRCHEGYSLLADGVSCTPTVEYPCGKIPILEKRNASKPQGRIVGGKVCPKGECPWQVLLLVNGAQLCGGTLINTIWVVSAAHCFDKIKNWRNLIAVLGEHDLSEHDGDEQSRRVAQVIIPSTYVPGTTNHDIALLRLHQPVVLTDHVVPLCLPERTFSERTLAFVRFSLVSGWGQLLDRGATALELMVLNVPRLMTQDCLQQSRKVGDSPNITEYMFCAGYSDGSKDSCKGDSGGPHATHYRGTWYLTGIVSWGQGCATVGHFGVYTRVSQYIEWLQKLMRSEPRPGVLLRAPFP

Plasma [7] = test: Anticoagulation activity in AT-III-deficient human plasma preincubated for 2 mins followed by APTT reagent and measured after 3 mins by coagulometric method; format: functional, cell-free; conditions: time 5.0 min
[8] = target: Prothrombin (Homo sapiens) (UniProt P00734); test: Inhibition of factor 2a (unknown origin) at IC90 preincubated for 1 min followed by chromogenic substrate addition and measured for 2 mins in presence of AT-III; conditions: time 3.0 min
Rattus norvegicus [9] = test: Antithrombotic activity in thromboplastin and stasis-induced Sprague-Dawley rat deep venous thrombosis model assessed as reduction in venous thrombosis by measuring activity potency of oligosaccharides multiplied by the percentage of oligosaccharides in dHG-5 at 2.36 mg/kg, sc administered 1 hr prior to thromboplastin addition for 20 secs followed by establishment of stasis for 20 mins relative to dHG-5; format: functional; conditions: time 80.33 min, 1.339 h
[10] = target: T1, Coagulation factor IX/VIII (Homo sapiens); test: Inhibition of human citrated plasma iXase (factor 8a-factor 9a complex) assessed as activity potency of oligosaccharides multiplied by the percentage of oligosaccharides in dHG-5 preincubated for 2 mins followed by factor 10 addition and measured after 1 min by FXa chromogenic substrate SXa-11 based assay relative to dHG-5; format: protein-complex assay; conditions: time 3.0 min
Coagulation factor IX [11] = target: T3, Coagulation factor IX (Homo sapiens, UniProt P00740); test: Inhibition of factor 9a (unknown origin) binding to immobilized biotinylated oHG-11 by biolayer interferometry relative to dHG-5
[12] = target: Coagulation factor X (Homo sapiens) (UniProt P00742); test: Inhibition of factor 10a (unknown origin) at IC90 preincubated for 1 min followed by chromogenic substrate addition and measured for 2 mins in presence of AT-III relative to control; conditions: time 3.0 min
Rattus norvegicus [13] = test: Antithrombotic activity in thromboplastin and stasis-induced Sprague-Dawley rat deep venous thrombosis model assessed as reduction in venous thrombosis at 2.36 mg/kg, sc administered 1 hr prior to thromboplastin addition for 20 secs followed by establishment of stasis for 20 mins; format: functional; design: scale not given: the % may be the effect or the level left; conditions: time 80.33 min, 1.339 h
Rattus norvegicus [14] = test: Antithrombotic activity in thromboplastin and stasis-induced Sprague-Dawley rat deep venous thrombosis model assessed as reduction in venous thrombosis at 2.36 mg/kg, sc administered 1 hr prior to thromboplastin addition for 20 secs followed by establishment of stasis for 20 mins relative to dHG-5; format: functional; conditions: time 80.33 min, 1.339 h
[15] = target: Coagulation factor XI (Homo sapiens) (UniProt P03951); test: Inhibition of factor 11a (unknown origin) at IC50 using S-2366 as substrate preincubated for 1 min followed by chromogenic substrate addition and measured for 2 mins; conditions: time 3.0 min
Plasma [16] = test: Anticoagulation activity in HCII-deficient human plasma preincubated for 2 mins followed by APTT reagent and measured after 3 mins by coagulometric method; format: functional, cell-free; conditions: time 5.0 min
[17] = target: Coagulation factor X (Homo sapiens) (UniProt P00742); test: Inhibition of factor 10a (unknown origin) at IC50 preincubated for 1 min followed by chromogenic substrate addition and measured for 2 mins; conditions: time 3.0 min
[18] = target: Coagulation factor IX/VIII (Homo sapiens, UniProt P00451+P00740); test: Inhibition of human citrated plasma iXase (factor 8a-factor 9a complex) preincubated for 2 mins followed by factor 10 addition and measured after 1 min by FXa chromogenic substrate SXa-11 based assay; format: protein-complex assay
[19] = target: Coagulation factor X (Homo sapiens) (UniProt P00742); test: Inhibition of factor 10a (unknown origin) at IC50 preincubated for 1 min followed by chromogenic substrate addition and measured for 2 mins in presence of AT-III; conditions: time 3.0 min
[20] = target: T4, Coagulation factor XII (Homo sapiens) (UniProt P00748); test: Inhibition of factor 12a (unknown origin) at IC50 using kallikrein chromogenic substrate preincubated for 1 min followed by chromogenic substrate addition and measured for 2 mins; conditions: time 3.0 min
T4 sequence (whole entry): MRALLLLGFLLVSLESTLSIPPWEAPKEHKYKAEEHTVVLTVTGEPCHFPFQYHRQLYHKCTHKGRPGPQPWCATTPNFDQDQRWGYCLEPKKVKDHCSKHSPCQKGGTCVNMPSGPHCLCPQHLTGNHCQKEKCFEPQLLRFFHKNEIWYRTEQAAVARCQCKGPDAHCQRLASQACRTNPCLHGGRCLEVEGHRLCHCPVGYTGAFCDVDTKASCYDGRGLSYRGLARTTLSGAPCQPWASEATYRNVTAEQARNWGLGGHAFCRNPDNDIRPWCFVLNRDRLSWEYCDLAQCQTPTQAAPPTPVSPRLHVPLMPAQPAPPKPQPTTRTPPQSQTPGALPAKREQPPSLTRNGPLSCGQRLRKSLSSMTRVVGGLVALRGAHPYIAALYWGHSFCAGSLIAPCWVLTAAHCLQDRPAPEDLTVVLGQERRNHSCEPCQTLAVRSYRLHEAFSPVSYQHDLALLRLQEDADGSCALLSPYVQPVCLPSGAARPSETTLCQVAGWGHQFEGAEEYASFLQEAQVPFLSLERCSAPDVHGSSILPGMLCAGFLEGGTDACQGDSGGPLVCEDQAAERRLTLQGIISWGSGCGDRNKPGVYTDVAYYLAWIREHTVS

[21] = target: Prothrombin (Homo sapiens) (UniProt P00734); test: Inhibition of factor 2a (unknown origin) at IC50 preincubated for 1 min followed by chromogenic substrate addition and measured for 2 mins; conditions: time 3.0 min
Coagulation factor IX [22] = target: T3, Coagulation factor IX; test: Inhibition of factor 9a (unknown origin) binding to immobilized biotinylated oHG-11 assessed as activity potency of oligosaccharides multiplied by the percentage of oligosaccharides in dHG-5 by biolayer interferometry relative to dHG-5
[23] = target: T4, Coagulation factor XII (Homo sapiens); test: Inhibition of factor 12a (unknown origin) at IC50 using kallikrein chromogenic substrate preincubated for 1 min followed by chromogenic substrate addition and measured for 2 mins in presence of AT-III; conditions: time 3.0 min
Plasma [24] = test: Anticoagulation activity in human plasma assessed as drug level causing 20 times doubling of APTT preincubated for 2 mins followed by APTT reagent and measured after 3 mins by coagulometric method relative to dHG-5; format: functional; conditions: time 5 min
[25] = target: T2, Coagulation factor VII (Homo sapiens); test: Inhibition of factor 7a (unknown origin) at IC50 using pefachrome factor VIIa as substrate preincubated for 1 min followed by chromogenic substrate addition and measured for 2 mins; conditions: time 3.0 min
Coagulation factor IX [26] = target: T3, Coagulation factor IX; test: Inhibition of factor 9a (unknown origin) binding to immobilized biotinylated oHG-11 by biolayer interferometry

Chain of Coagulation factor X (Homo sapiens) (P00742 41-179 limits assumed): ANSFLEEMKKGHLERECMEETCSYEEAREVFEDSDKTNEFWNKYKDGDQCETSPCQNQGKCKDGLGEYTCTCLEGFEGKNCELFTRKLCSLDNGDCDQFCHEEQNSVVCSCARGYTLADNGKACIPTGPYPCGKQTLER
Chain of Coagulation factor X (Homo sapiens) (P00742 235-488 limits assumed): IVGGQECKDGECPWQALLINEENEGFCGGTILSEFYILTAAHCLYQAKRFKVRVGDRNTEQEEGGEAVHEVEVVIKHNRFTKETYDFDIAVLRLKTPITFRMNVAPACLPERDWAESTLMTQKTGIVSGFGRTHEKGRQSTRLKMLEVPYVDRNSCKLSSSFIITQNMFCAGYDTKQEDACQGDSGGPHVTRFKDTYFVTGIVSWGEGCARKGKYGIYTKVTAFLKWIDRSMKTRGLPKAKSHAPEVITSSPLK
Chain of Coagulation factor XI (Homo sapiens) (P03951 19-387 limits assumed): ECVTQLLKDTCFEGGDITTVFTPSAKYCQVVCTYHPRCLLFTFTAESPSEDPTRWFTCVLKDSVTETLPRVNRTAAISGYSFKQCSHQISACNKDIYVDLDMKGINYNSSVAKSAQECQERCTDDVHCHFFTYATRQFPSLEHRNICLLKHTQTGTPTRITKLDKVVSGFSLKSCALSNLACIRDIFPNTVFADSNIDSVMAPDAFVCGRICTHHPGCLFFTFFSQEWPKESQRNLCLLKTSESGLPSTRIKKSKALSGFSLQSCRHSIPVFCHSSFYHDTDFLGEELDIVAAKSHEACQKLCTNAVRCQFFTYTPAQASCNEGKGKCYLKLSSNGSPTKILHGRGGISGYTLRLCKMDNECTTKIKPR
Chain of Coagulation factor XI (Homo sapiens) (P03951 388-625 limits assumed): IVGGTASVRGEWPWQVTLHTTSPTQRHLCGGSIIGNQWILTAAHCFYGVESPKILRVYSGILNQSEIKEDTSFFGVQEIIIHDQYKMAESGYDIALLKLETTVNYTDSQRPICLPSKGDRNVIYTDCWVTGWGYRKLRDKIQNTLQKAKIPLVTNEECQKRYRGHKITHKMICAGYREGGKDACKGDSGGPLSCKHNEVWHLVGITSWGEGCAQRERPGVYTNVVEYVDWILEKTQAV
T3 sequence (P00740 47-191 limits assumed): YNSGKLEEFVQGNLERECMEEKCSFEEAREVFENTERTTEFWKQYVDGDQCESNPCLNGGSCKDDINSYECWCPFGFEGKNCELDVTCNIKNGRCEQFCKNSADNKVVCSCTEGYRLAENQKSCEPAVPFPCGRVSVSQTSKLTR
T3 sequence (P00740 227-461 limits assumed): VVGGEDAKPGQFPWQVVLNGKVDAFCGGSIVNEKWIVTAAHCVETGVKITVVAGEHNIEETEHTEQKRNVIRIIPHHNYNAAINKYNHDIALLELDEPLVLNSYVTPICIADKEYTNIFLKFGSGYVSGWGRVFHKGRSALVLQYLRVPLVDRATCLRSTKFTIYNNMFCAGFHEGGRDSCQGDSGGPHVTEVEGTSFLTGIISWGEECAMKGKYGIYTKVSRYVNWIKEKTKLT
Chain of Coagulation factor IX/VIII (P00451 20-759 limits assumed): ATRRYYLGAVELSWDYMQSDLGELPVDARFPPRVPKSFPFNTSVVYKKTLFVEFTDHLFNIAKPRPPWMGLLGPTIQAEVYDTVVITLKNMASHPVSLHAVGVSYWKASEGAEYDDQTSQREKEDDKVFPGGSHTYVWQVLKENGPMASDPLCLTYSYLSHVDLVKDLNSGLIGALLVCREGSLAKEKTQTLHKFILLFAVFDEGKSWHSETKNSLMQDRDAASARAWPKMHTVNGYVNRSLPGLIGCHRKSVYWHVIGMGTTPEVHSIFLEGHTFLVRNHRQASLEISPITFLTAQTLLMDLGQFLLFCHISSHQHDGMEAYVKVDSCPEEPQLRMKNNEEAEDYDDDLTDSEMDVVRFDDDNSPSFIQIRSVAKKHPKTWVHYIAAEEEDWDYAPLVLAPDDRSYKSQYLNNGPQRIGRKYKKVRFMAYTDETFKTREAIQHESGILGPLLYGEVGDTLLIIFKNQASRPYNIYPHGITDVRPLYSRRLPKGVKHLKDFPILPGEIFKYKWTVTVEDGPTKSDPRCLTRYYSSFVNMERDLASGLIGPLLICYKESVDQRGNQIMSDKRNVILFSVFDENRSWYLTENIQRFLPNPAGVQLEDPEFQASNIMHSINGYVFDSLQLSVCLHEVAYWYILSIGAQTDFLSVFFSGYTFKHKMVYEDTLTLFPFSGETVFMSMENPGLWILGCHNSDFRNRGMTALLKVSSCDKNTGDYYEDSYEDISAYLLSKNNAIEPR
Chain of Coagulation factor IX/VIII (P00451 1668-2351 limits assumed): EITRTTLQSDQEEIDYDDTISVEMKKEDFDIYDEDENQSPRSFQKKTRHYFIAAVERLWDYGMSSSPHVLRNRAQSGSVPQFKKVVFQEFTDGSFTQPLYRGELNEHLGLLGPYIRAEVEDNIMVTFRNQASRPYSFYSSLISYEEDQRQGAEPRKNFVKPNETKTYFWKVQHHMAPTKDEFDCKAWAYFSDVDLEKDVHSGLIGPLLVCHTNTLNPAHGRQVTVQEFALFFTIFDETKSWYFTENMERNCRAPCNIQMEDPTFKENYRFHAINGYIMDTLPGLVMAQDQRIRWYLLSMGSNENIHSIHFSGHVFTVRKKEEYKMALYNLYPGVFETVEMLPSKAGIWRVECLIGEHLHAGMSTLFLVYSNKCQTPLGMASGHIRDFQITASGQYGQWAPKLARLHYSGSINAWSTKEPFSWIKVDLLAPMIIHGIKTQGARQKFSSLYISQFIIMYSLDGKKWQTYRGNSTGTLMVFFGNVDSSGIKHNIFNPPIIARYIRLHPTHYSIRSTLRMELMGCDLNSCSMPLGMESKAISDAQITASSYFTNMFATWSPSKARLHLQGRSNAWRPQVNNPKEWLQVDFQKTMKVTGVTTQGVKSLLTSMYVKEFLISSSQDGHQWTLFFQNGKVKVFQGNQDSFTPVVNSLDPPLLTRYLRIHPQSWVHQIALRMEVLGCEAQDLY
Chain of Coagulation factor IX/VIII (P00740 47-191 limits assumed): as the sequence (P00740 47-191 limits assumed) above
Chain of Coagulation factor IX/VIII (P00740 227-461 limits assumed): as the sequence (P00740 227-461 limits assumed) above

`CC(=O)N[C@H]1[C@H](O[C@@H]([C@H](O[C@@H]2O[C@@H](C)[C@@H](OS(=O)(=O)[O-])[C@@H](OS(=O)(=O)O)[C@@H]2O)[C@@H](O)CO)[C@H](O)C(=O)[O-])O[C@H](COS(=O)(=O)[O-])[C@H](OS(=O)(=O)[O-])[C@@H]1O[C@@H]1O[C@H](C(=O)[O-])[C@@H](O[C@@H]2O[C@H](COS(=O)(=O)[O-])[C@H](OS(=O)(=O)[O-])[C@H](O[C@@H]3O[C@H](C(=O)[O-])[C@@H](O[C@@H]4O[C@H](COS(=O)(=O)[O-])[C@H](OS(=O)(=O)[O-])[C@H](O[C@@H]5O[C@H](C(=O)[O-])[C@@H](O[C@@H]6O[C@H](COS(=O)(=O)[O-])[C@H](OS(=O)(=O)[O-])[C@H](O[C@@H]7O[C@H](C(=O)[O-])[C@@H](O[C@@H]8O[C@H](COS(=O)(=O)[O-])[C@H](OS(=O)(=O)[O-])[C@H](O[C@@H]9OC(C(=O)[O-])=C[C@H](O[C@@H]%10O[C@@H](C)[C@@H](OS(=O)(=O)[O-])[C@@H](OS(=O)(=O)O)[C@@H]%10O)[C@H]9O)[C@H]8NC(C)=O)[C@H](O[C@@H]8O[C@@H](C)[C@@H](OS(=O)(=O)[O-])[C@@H](OS(=O)(=O)O)[C@@H]8O)[C@H]7O)[C@H]6NC(C)=O)[C@H](O[C@@H]6O[C@@H](C)[C@@H](OS(=O)(=O)[O-])[C@@H](OS(=O)(=O)O)[C@@H]6O)[C@H]5O)[C@H]4NC(C)=O)[C@H](O[C@@H]4O[C@@H](C)[C@@H](OS(=O)(=O)[O-])[C@@H](OS(=O)(=O)O)[C@@H]4O)[C@H]3O)[C@H]2NC(C)=O)[C@H](O[C@@H]2O[C@@H](C)[C@@H](OS(=O)(=O)[O-])[C@@H](OS(=O)(=O)O)[C@@H]2O)[C@H]1O.[Na+].[Na+].[Na+].[Na+].[Na+].[Na+].[Na+].[Na+].[Na+].[Na+].[Na+].[Na+].[Na+].[Na+].[Na+].[Na+].[Na+].[Na+].[Na+].[Na+].[Na+].[Na+]` was tested. Which inhibition [1] did it give?
The inhibition was “Active”.

What about the Ratio [2] of the same compound?
The Ratio was 81.6 U.

What about the inhibition [3] of the same compound?
The inhibition was “inactive”.

And the inhibition [4]?
Its inhibition is “inactive”.

What about the Ratio (Plasma [5]) of the same compound?
The Ratio was 14.17 U.

And the inhibition [6]?
Its inhibition is “inactive”.

What about the Activity (Plasma [7]) of the same compound?
The Activity was “Active”.

What about the inhibition [8] of the same compound?
The inhibition was “Active”.

And the Ratio (Rattus norvegicus [9])?
Its Ratio is 16.73 U.

And the Ratio [10]?
The Ratio was 11.1 U.

And the Ratio (Coagulation factor IX [11])?
The Ratio was 103 U.

What about the inhibition [12] of the same compound?
Its inhibition is “inactive”.

And the Activity (Rattus norvegicus [13])?
The Activity was 58.4%.

What about the Ratio (Rattus norvegicus [14]) of the same compound?
The Ratio was 123.01 U.

What about the inhibition [15] of the same compound?
Its inhibition is “inactive”.

And the Activity (Plasma [16])?
The Activity was “Active”.

And the inhibition [17]?
Its inhibition is “inactive”.

What about the pIC50 [18] of the same compound?
Its pIC50 is 7.76.

And the inhibition [19]?
The inhibition was “inactive”.

And the inhibition [20]?
Its inhibition is “inactive”.

And the inhibition [21]?
The inhibition was “inactive”.

And the Ratio (Coagulation factor IX [22])?
The Ratio was 14.1 U.

What about the inhibition [23] of the same compound?
Its inhibition is “inactive”.

And the Ratio (Plasma [24])?
The Ratio was 104.07 U.

And the “inhibition (active/not active)” value [25]?
The value was “inactive”.

What about the pIC50 (Coagulation factor IX [26]) of the same compound?
The pIC50 was 6.38.
